Test results: ChEMBL document CHEMBL6182869, “Tetracationic tetraaryltetranaphtho[2,3]porphyrins for photodynamic inactivation against Staphylococcus aureus biofilm” (Eur J Med Chem, 2025)
Activity calls are given as the source filed them. The calls are words filed in the database; no cut-off is given here.

Tests used:
[1] = system: Staphylococcus aureus; assay: Antibacterial activity against Staphylococcus aureus assessed as bacterial growth inhibition measured after 24 hrs by broth microdilution method; type: functional
[2] = system: Escherichia coli; assay: Antibacterial activity against Escherichia coli assessed as bacterial growth inhibition measured after 24 hrs by broth microdilution method; type: functional
[3] = system: Staphylococcus aureus; assay: Antibiofilm activity against Staphylococcus aureus at 16 uM preincubated for 15 mins followed by light irradiation with 730 nm, 40 J/cm2 by SYTO 9/PI staining based CLSM analysis; type: functional, organism-based
[4] = system: Staphylococcus aureus; assay: Antibiofilm activity against Staphylococcus aureus assessed as reduction in green fluorescence intensity at 16 uM preincubated for 15 mins followed by light irradiation with 730 nm, 40 J/cm2 by SYTO 9/PI staining based CLSM analysis; type: functional, organism-based
[5] = system: HaCaT; assay: Phototoxicity in human HaCaT cells assessed as cell viability at 16 uM preincubated for 15 mins by MTT assay; type: functional, cell-based
[6] = system: Staphylococcus aureus; assay: Antibiofilm activity against Staphylococcus aureus assessed as disruption of mature biofilm structure at 16 uM preincubated for 15 mins followed by light irradiation with 730 nm, 40 J/cm2 by crystal violet staining based analysis; type: functional, organism-based
[7] = system: Staphylococcus aureus; assay: Antibiofilm activity against Staphylococcus aureus assessed as viable bacteria at 16 uM preincubated for 15 mins followed by light irradiation with 730 nm, 40 J/cm2 by SYTO 9/PI staining based CLSM analysis; type: functional, organism-based
[8] = Photophysical property of the compound assessed as fluorescence quantum yield by UV-vis spectrophotometric analysis; type: physicochemical
[9] = system: Staphylococcus aureus; assay: Antibacterial activity against Staphylococcus aureus assessed as log reduction in bacterial viability at 8 uM preincubated with compound for 15 mins followed by light irradiation with 730 nm, 40 J/cm2 by cell counting analysis relative to control; type: functional; details: 0.25 h
[10] = system: Staphylococcus aureus; assay: Antibacterial activity against Staphylococcus aureus assessed as reduction in viable bacteria at 0.5 uM preincubated with compound for 15 mins followed by light irradiation with 730 nm, 40 J/cm2 by cell counting analysis relative to control; type: functional; details: 0.25 h
[11] = Dark cytotoxicity against human HaCaT cells assessed as cell viability at 16 uM preincubated for 15 mins by MTT assay; type: toxicity, cell-based; details: read-out: Activity
[12] = Photophysical property of the compound assessed as singlet oxygen quantum yield by UV-vis spectrophotometric analysis; type: physicochemical
[13] = system: Candida albicans; assay: Antifungal activity against Candida albicans assessed as fungal growth inhibition preincubated with compound for 15 mins followed by light irradiated with 730 nm, 40 J/cm2 and measured after 24 hrs by broth microdilution method; type: functional; details: light or radiation study, 24.25 h, time 1455 min
[14] = system: Escherichia coli; assay: Antibacterial activity against Escherichia coli assessed as bacterial growth inhibition preincubated with compound for 15 mins followed by light irradiated with 730 nm, 40 J/cm2 and measured after 24 hrs by broth microdilution method; type: functional; details: light or radiation study, 24.25 h, time 1455 min
[15] = system: Staphylococcus aureus; assay: Antibacterial activity against Staphylococcus aureus assessed as bacterial growth inhibition preincubated with compound for 15 mins followed by light irradiated with 730 nm, 40 J/cm2 and measured after 24 hrs by broth microdilution method; type: functional; details: light or radiation study, 24.25 h, time 1455 min
[16] = system: Staphylococcus aureus; assay: Antibiofilm activity against Staphylococcus aureus assessed as disruption of mature biofilm rate at 16 uM preincubated for 15 mins followed by light irradiation with 730 nm, 40 J/cm2 by crystal violet staining based analysis relative to control; type: functional; details: 0.25 h
[17] = Induction of singlet oxygen quantum yield under 418 nm light irradiation by DPBF based assay; type: functional
[18] = system: Staphylococcus aureus; assay: Antibacterial activity against Staphylococcus aureus assessed as eradication rate at 8 uM preincubated with compound for 15 mins followed by light irradiation with 730 nm, 40 J/cm2 relative to control; type: functional; details: 0.25 h
[19] = system: HaCaT; assay: Phototoxicity in human HaCaT cells assessed as cell viability at 16 uM preincubated for 15 mins followed by light irradiation with 730 nm, 40 J/cm2 by MTT assay; type: functional, cell-based
[20] = system: Staphylococcus aureus; assay: Antibacterial activity against Staphylococcus aureus preincubated with compound for 15 mins followed by light irradiation with 730 nm, 40 J/cm2 by cell counting analysis; type: functional, organism-based; details: dose 0.5-8 µM
[21] = system: Staphylococcus aureus; assay: Bactericidal activity against Staphylococcus aureus at 0.5 to 8 uM; type: functional, organism-based; details: dose 0.5-8 µM
[22] = system: Staphylococcus aureus; assay: Antibiofilm activity against Staphylococcus aureus assessed as increase in red fluorescence intensity at 16 uM preincubated for 15 mins followed by light irradiation with 730 nm, 40 J/cm2 by SYTO 9/PI staining based CLSM analysis; type: functional, organism-based
[23] = system: Candida albicans; assay: Antifungal activity against Candida albicans assessed as fungal growth inhibition measured after 24 hrs by broth microdilution method; type: functional

CC[N+](C)(CC)CCCOc1ccc(-c2c3nc(c(-c4ccc(OCCC[N+](C)(CC)CC)cc4)c4[nH]c(c(-c5ccc(OCCC[N+](C)(CC)CC)cc5)c5nc(c(-c6ccc(OCCC[N+](C)(CC)CC)cc6)c6[nH]c2c2cc7ccccc7cc62)-c2cc6ccccc6cc2-5)c2cc5ccccc5cc42)-c2cc4ccccc4cc2-3)cc1.[Br-].[Br-].[Br-].[Br-]
MIC [1]: 16 µM | MIC [2]: > 64 µM | Activity [3]: Active | Activity [4]: Active | Activity [5]: inactive | Activity [6]: Active | Activity [7]: Active | Activity [8]: 0.06 | log(activity) [9]: 3 | Activity [10]: >75% | viability at 0.25 h, 16 µM [11]: > 80% | Activity [12]: 0.51 | MIC [13]: 64 µM | MIC [14]: > 64 µM | MIC [15]: 8 µM | Activity [16]: 80.1% | Activity [17]: Active | Activity [18]: >99.9% | Activity [19]: inactive | Activity [20]: Dose-dependent-effect | Activity [21]: Active | Activity [22]: Active | MIC [23]: 64 µM
